Legend:
human NUCB1 [1] = biological target: T1, human NUCB1 (Homo sapiens, UniProt Q02818); experiment: In vitro gel-based competition of AEA-DA probe labeling of NUCB1; format: binding; settings: AEA-DA 5.0 μM, lipids 20×, NUCB1-transfected HEK293T lysates
T1 construct: made in house; host or cells: Escherichia coli BL21(DE3)
T1 sequence (Q02818 27-461): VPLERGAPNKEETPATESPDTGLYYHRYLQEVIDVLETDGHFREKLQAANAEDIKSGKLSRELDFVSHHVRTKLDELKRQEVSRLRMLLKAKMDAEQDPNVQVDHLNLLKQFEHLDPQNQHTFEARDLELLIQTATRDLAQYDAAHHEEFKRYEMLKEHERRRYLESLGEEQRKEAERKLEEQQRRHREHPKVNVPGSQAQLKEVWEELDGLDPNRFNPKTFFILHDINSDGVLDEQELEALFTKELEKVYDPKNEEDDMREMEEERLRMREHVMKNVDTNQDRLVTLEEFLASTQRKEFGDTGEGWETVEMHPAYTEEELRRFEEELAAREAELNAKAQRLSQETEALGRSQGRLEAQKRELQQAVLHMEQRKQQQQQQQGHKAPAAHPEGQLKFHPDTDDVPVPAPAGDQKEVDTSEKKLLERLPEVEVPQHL
Procedure: Human NUCB1 lacking the N-terminal signal sequence (M1-A26) was subcloned into pET45b(+) vector (Novagen) using the following PCR primers for amplification: 5′-CATCAATTGTGTGCCCCTGGAGAGAG-3′ and 5′-AGCAAGCTTTACAGATGTTGGGGCACC-3′. Following transformation of Escherichia coli strain BL21(DE3) with hNucb1ΔSSpET45b(+), a single colony was isolated and grown in Terrific Broth containing carbenicillin (100 mg/L) at 37° C. to an OD600 of 0.8. Protein expression was induced with IPTG (1.0 mM) and the cells were incubated at 20° C. with shaking overnight. After centrifugation, cells pellets were resuspended in cold buffer containing HEPES (0.05M), NaCl (0.03 M), imidazole (5.0 mM), DNase (0.1 mg/mL), MgCl2 (1.0 mM), CaCl2 (1.0 mM) and EDTA-free Complete Protease Inhibitor Cocktail and lysed using a microfluidizer. […] The suspension was applied to a column and the retained resin was washed with HEPES buffer containing 500 mM NaCl until the eluent was clean of DNA and protein (A280/260) and then with HEPES buffer containing 10 mM imidazole (5 mL/1 mL resin). Protein was then slowly eluted with HEPES buffer containing 50 mM imidazole in 1.0 mL fractions and the combined fractions containing hNUCB1 were passed through a Sephadex G-25M column to remove imidazole and concentrated in an Amicon centrifugal filter device (Millipore). These conditions produced hNUCB1 at approximately 10 mg/L of culture; however, several lower molecular weight fragments were also present in this preparation. hNUCB1 was further purified by size exclusion chromatography.
(§1) Cell lysates (1.0 mg/mL), the indicated lipid probe (2.5 or 5 μM) and, for recombinant NUCB1 competition experiments, purified hNUCB1 (250 nM) and CaCl2 (100 μM) were mixed on ice. DMSO or competitors were then added to the proteome mixture (50 μM) in 96-well plates and each sample was incubated for 15 min at 37° C. The samples were then irradiated with UV light and subjected to previously described click chemistry conditions. As before, each reaction was quenched with 4×SDS loading buffer (17 μL), and proteins were resolved using SDS-PAGE (10% acrylamide gel) and analyzed by in-gel fluorescent scanning on a Hitachi FMBIO-II flatbed fluorescence scanner. NUCB1 competition was quantitatively assessed by measuring the fluorescent intensity of the corresponding gel band using ImageJ 1.48v and normalizing this value by a non-competed gel band to control for loading differences.
(§2) Metabolite data are shown as mean±SEM (n=3-5/group). Differences between two groups were determined using Student's t test (unpaired, two-tailed) and significance was denoted for P values<0.05.

human NUCB1 [2] = biological target: T1, human NUCB1; experiment: FluoPol assay / high throughput screen with Fl-AEA and recombinant NUCB1; format: binding; settings: for suppression of the NUCB1-FluoPol signal (blockade of Fl-AEA binding): competitor lipids, recombinant NUCB1
Procedure: FluoPol conditions were optimized by screening various concentrations of Fl-AEA, hNUCB1, CaCl2 and Pluronic F-127 against positive and negative controls. Arachidonic acid (20 μM final) was used as a positive control, and DMSO as a negative. Additionally, protein-free controls were used to normalize for background signal. […] The Z′-factor for these conditions was determined to be 0.54, indicating a high signal to noise assay.
A 10 μL solution of hNUCB1 (1 μM), Fl-AEA (0.5 μM), CaCl2 (20 μM), and Pluronic F-127 (0.01%) was added to a Greiner 384-well plate. Additionally, in some wells protein was omitted to serve as a blank control for background signal. To the protein containing wells 16,000 compounds (50 nL in DMSO, 2 mM) from the Maybridge Hitfinder library were added by a pin-tool robot. Additionally, on each plate to some wells arachidonic acid (20 μM final) or DMSO were added as positive and negative controls to allow normalization between plates. The plates were allowed to incubate for 5 minutes at room temperature, then fluorescence polarization was measured by measuring fluorescence intensity through polarized 595 nm filters. Hits were selected based on maximal probe competition.

NENF = biological target: T2, NENF (Homo sapiens, UniProt Q9UMX5); experiment: In vitro gel-based competition of AEA-DA probe labeling of NENF; format: binding; settings: NENF-transfected HEK293T lysates; for competition of AEA-DA probe labeling of recombinant NENF: competitors 1-100 μM
T2 construct: Full-length cDNAs encoding for the each protein of interest were subcloned into pcDNA3.1 myc-His A; Myc (myc-His of pcDNA3.1 myc-His A); expressed in transfected cells; host or cells: HEK293T (lysates)
T2 sequence (Q9UMX5 32-172, species assumed): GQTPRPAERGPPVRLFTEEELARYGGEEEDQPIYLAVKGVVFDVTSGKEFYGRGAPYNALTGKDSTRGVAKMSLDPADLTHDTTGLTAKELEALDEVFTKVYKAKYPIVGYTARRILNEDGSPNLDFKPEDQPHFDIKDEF
Procedure: (§3) Full-length cDNAs encoding for the each protein of interest were subcloned into pcDNA3.1 myc-His A (Invitrogen) or used directly for transfections if available in a eukaryotic expression vector. HEK293T cells were grown to ˜70% confluence under standard growth conditions before adding the appropriate cDNA [control cells (“mock”) received an equal amount of empty pcDNA3.1 myc-His A vector] and FuGENE 6 or X-tremeGENE HP (Roche) transfection reagent according to the manufacturer's instructions. Cells were incubated for 36-48 hours before labeling in situ or harvesting for in vitro experiments.
as §1, with “DMSO or competitors were then added to the proteome mixture (50 μM) in 96-well plates and each sample was incubated for 15 min at 37° C.” left out
as §2

[3] = tested on: NAEs, NATs, AA and 2-AG in Neuro2a cells; experiment: Targeted LC-MS (MRM) analysis of lipids from Neuro2a cells; format: cell-based, mouse; settings: Neuro2a cells, 10 μM (PF-7845 1 μM)
Procedure: Discovery metabolite profiling was performed as described by Saghatelian et al., “Assignment of endogenous substrates to enzymes by global metabolite profiling,” Biochemistry 43:14332-14339 (2004) with several modifications. […] The media from the cells was removed and cells were washed with DPBS (2×5.0 mL) before adding freshly prepared media solutions containing vehicle or compound. After incubating for 6 h at 37° C. and subsequent removal of the media, the cells were harvested by scrapping in cold DPBS (3 mL) and pelleted by centrifugation in glass vials. The pellets were washed once with cold DPBS (3 mL) and then cold […] (2:1) (3 mL) was added. After vortexing, the vials were centrifuged (3,000×g, 10 min, 4° C.) and the bottom (organic) layer was transferred to a new glass vial and concentrated under a stream of N2. Samples were stored at −80° C. until the day of analysis when they were reconstituted in Mobile Phase A (100 μL, see below).
Neuro2a cells were treated and lipids extracted as described above. A mixture of internal standards [AEA-d4 (10 pmol), 2-AG-d5 (100 pmol), AA-d8 (100 pmol), PEA-d4 (100 pmol), PDA (1.0 nmol)] was added to the organic phase prior to extracting cells. NAEs, MAGs, AA and NATs were analyzed similarly to previously described methods (Saghatelian et al., 2004). The following MS parameters were used to measure the indicated metabolites by MRM (precursor ion, product ion, collision energy, polarity): NAE 20:4 (AEA) (348, 62, 12, positive), AEA-d4 (352, 66, 12, positive), NAE 16:0 (PEA) (300, 62, 12, positive), PEA-d4 (304, 62, 12, positive), NAE 18:0 (328, 62, 12, positive), NAE 18:1 (326, 62, 12, positive), NAE 18:2 (324, 62, 12, positive), 2-AG (379, 287, 8, positive), 2-AG-d5 (384, 287, 8, positive), AA (303, 259, 4, negative), AA-d8 (311, 267, 4, negative), NAT 20:4 (410, 80, 35, negative), NAT 22:1 (444, 80, 35, negative), NAT 24:1 (472, 80, 35, negative), NAT 24:0 (474, 80, 35, negative), NAT 26:0 (502, 80, 35, negative). The indicated lipids were quantified by measuring the area under the peak relative to an internal standard (AEA-d4 for AEA and NAE 18:2; PEA-d4 for PEA, NAE 18:1 and NAE 18:0; 2-AG-d5 for 2-AG; AA-d8 for AA and 20:4 NAT; PDA for all other NATs).

recombinant TMEM97 = biological target: T3, recombinant TMEM97 (Homo sapiens, UniProt Q5BJF2); experiment: In situ gel-based competition of arachidonoyl probe labeling of recombinant TMEM97 in HEK293T cells; format: cell-based; settings: TMEM97-transfected HEK293T cells, probe 5 μM, competitor 25 μM
T3 construct: Full-length cDNAs encoding for the each protein of interest were subcloned into pcDNA3.1 myc-His A; expressed in transfected cells; host or cells: HEK293T
T3 sequence (Q5BJF2 whole entry, species assumed): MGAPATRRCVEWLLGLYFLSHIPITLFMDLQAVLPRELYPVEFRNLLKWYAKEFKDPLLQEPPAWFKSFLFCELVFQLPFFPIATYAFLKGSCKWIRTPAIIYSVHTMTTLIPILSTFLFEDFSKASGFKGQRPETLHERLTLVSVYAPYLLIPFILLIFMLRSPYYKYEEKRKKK
Procedure: Proteomes were diluted to 1.0 mg/mL (total protein concentration) and 50 μL of each proteome was transferred to separate wells in a 96-well plate.
as §3

[4] = tested on: AEA-DA lipid probe targets in Neuro2a cells; settings: Neuro2a cells, AEA-DA 5 μM

CCCCC/C=C\C/C=C\C/C=C\C/C=C\CCCC(=O)OC(CO)CO [2-AG]
competition of AEA-DA probe labeling of recombinant NUCB1 by lipids (human NUCB1 [1]): blocked | suppression of the NUCB1-FluoPol signal (blockade of Fl-AEA binding) (human NUCB1 [2]): Concentration-dependent suppression

CCCCC/C=C\C/C=C\C/C=C\C/C=C\CCCC(=O)O [AA, Arachidonic acid]
competition of AEA-DA probe labeling of recombinant NUCB1 by lipids (human NUCB1 [1]): blocked | competition of AEA-DA probe labeling of recombinant NENF (NENF): competitively blocked | suppression of the NUCB1-FluoPol signal (blockade of Fl-AEA binding) (human NUCB1 [2]): Concentration-dependent suppression

CCCCC/C=C\C/C=C\C/C=C\C/C=C\CCCC(=O)NCCCCCNC(=O)c1ccc(-c2c3ccc(=[N+](C)C)cc-3oc3cc(N(C)C)ccc23)c(C(=O)[O-])c1 [Fl-AEA, 2-(6-(Dimethylamino)-3-(dimethylmninio)-3H-xanthen-9-yl)-5-((5-((5Z,8Z,11Z,14Z)-icosa-5,8,11,14-tetraenamido)pentyl)carbamoyl)benzoate]
binding to recombinant, purified human NUCB1 (FluoPol signal) (human NUCB1 [2]; Fl-AEA 0.5 μM, NUCB1 1.0 μM): substantial increase in fluorescence polarization (FluoPol) signal

O=C(Nc1cccnn1)N1CCC(=Cc2cccc(Oc3ccc(C(F)(F)F)cn3)c2)CC1 [PF-7845, reference compound]
2-AG levels [3]: greater degree | cellular concentrations of NAEs and NATs ([3]; 6 h): elevated

CCCCC[C@H](O)/C=C/[C@H]1C(=O)C[C@H](O)[C@@H]1C/C=C\CCCC(=O)NCCO [PGD2-EA]
suppression of the NUCB1-FluoPol signal (blockade of Fl-AEA binding) (human NUCB1 [2]): minimal blockade

CCCCC[C@H](O)/C=C/[C@@H]1[C@@H](C/C=C\CCCC(=O)NCCO)[C@@H](O)C[C@H]1O [PGF2α-EA]
suppression of the NUCB1-FluoPol signal (blockade of Fl-AEA binding) (human NUCB1 [2]): minimal blockade

CC(C)CCC[C@@H](C)[C@H]1CC[C@H]2[C@@H]3CC=C4C[C@@H](O)CC[C@]4(C)[C@H]3CC[C@]12C [cholesterol]
suppression of the NUCB1-FluoPol signal (blockade of Fl-AEA binding) (human NUCB1 [2]): minimal blockade

COc1cc2c(cc1OC)CN(CCc1ccc(NC(=O)c3cccc4c(=O)c5cccc(OC)c5[nH]c34)cc1)CC2 [elacridar, reference compound]
competition of arachidonoyl probe labeling of recombinant TMEM97 (recombinant TMEM97): competition was observed | concentration blocking lipid probe labeling of FECH, ABCB1B and TMEM97 (as low as) [4]: 0.5 µM

C=Cc1c(C)c2cc3[n-]c(cc4nc(cc5nc(cc1[n-]2)C(C)=C5CCC(=O)O)C(CCC(=O)O)=C4C)c(C)c3C=C.[Cl-].[Fe+3] [hemin]
IC50 (NENF; read-out: IC50, inhibition of AEA-DA labeling of NENF): 2000 nM | competition of AEA-DA probe labeling of recombinant NENF (NENF): inhibited in a concentration-dependent manner

CCCCC[C@H](O)/C=C/[C@H]1C=CC(=O)[C@@H]1CCCCCCC(=O)O [prostaglandin A1]
suppression of the NUCB1-FluoPol signal (blockade of Fl-AEA binding) (human NUCB1 [2]): minimal blockade

CCCCC[C@H](O)/C=C/C1=C(CCCCCCC(=O)O)C(=O)CC1 [prostaglandin B1]
suppression of the NUCB1-FluoPol signal (blockade of Fl-AEA binding) (human NUCB1 [2]): minimal blockade

CCCCC[C@H](O)/C=C/[C@H]1C(=O)C[C@H](O)[C@@H]1C/C=C\CCCC(=O)O [prostaglandin D2]
suppression of the NUCB1-FluoPol signal (blockade of Fl-AEA binding) (human NUCB1 [2]): minimal blockade

CCCCCCCCCCCCC/C=C/[C@@H](O)[C@@H](N)CO [sphingosine]
suppression of the NUCB1-FluoPol signal (blockade of Fl-AEA binding) (human NUCB1 [2]): minimal blockade
